Laboratory results as given in US20180325947A1, “USE OF MAPK INHIBITORS TO REDUCE LOSS OF HEMATOPOIETIC STEM CELLS DURING EX VIVO CULTURE AND/OR GENETIC MANIPULATION” (Children's Hospital Medical Center, priority 2015, published 2018).

Experiments:
[1] = test system: human CD45+ cell engraftment in NSG mice; assay: primary transplant (1T) of cultured hCD34+ cells into NSG mice, hCD45+ engraftment in bone marrow; format: in vivo; conditions: for hCD45+ cell engraftment in bone marrow of 1T mice: 24 weeks after primary transplant of cultured hCD34+ cells with/without inhibitor
Protocol: FIG. 2. A preclinical model for studying adult human HSC ex vivo manipulation and gene transfer and its effect on LTRP. (Panel A) Freshly isolated or thawed mobilized peripheral blood (MPB) derived CD34+ cells were utilized for the study. Two different protocols were utilized for the study where lentivirus (LV) or γ-Retrovirus (RV) mediated gene transfer was performed at indicated time points. 0 h, 18-24 h, 36-42 h, and 72-96 h indicates the total amount of time where cells were exposed in the ex vivo culture after CD34 isolation before injection into NSG mice. (Panel B) After indicated time in culture and transduction, 1 million CD34+ starting equivalent cells were transplanted per NSG mouse after TBI intravenously (primary transplant=1T). Primary human engraftment and multi-lineage reconstitution was analyzed in mice at indicated time periods after bone marrow harvest at 6 and 12 weeks (wks) from left and right femurs, and after sacrifice at 24 wks, from all bones. A portion of cells were analyzed for FACS and the rest were depleted of mouse CD45+ cells and transplanted one to one, into secondary mice (secondary transplant=2T).
Panel A: hCD45^+ cell engraftment in bone marrow of 1T mice at 24 weeks following transplant of cultured hCD34^+ cells with/without p38 inhibitor Birb796. Panel B: Number of 2T mice engrafted (>0.01% hCD45^+ cells in BM) are shown above the middle bar and those non-engrafted below.
A xenograft model was developed to study hHSC engraftment. In the xenograft model of adult human HSC, CD34^+ cells were derived and isolated from fresh MPB. The fresh CD34^+ cells were either directly transplanted into immunocompromised NSG mice or cultured with human cytokines and then transduced either with lentivirus or retrovirus. […] The multipotential human hematopoietic progeny (hCD45^+) following huCD34^+ transplant in NSG mice were then measured to confirm that the model human HSC engraftment from adult (mobilized peripheral blood) CD34^+ HSC/P that mimics the results observed in gene therapy clinical trials. […]

[2] = test system: human CD34+38-90+ cells; assay: apoptosis, annexin V+ CD34+38-90+ cells; format: cell-based; conditions: with or without p38i
Protocol: Human CD34^+ cells were cultured and transduced as described in FIG. 13, panel A. Harvested cells were stained with trypan blue for viability, total CD34+ cell number (Panel A), fold change in percent human CD34^+ 38^− 90^+ 45RA^− 49f^+ (HSCs) (Panel B), percent annexin V^+ (apoptotic) CD34^+38^− 90^+ cells (Panel C), fold change in transduction efficiency (based on GFP marker percentage) over non-treated CD34^+38^− 90^+ cells (Panel D), fold change in MitoSOX MFI in CD34^+38^− 90^+ cells are shown (Panel E). Data represents mean±SEM. Statistics: Student's t test, […], *p<0.05, **p<0.01, ***p<0.001.

[3] = test system: human CD34+ 38- 90+ HSC enriched population; assay: cell cycle status of HSCs (Ki67 / Hoechst), flow cytometry; format: cell-based; conditions: for G0 quiescent phase of untransduced and transduced HSCs: early time period of ex vivo culture
Protocol: Human MPB derived CD34^+ cells were cultured and transduced with lentivirus (LV) or retrovirus (RV) for the indicated time points. Representative Immunofluorescence images of sorted human CD34^+ 38^− 90^+ population treated with or without p38i for 72 hours stained with anti-γH2AX and 53BP1 (Panel A) and quantification of γ-H2AX (Panel B) and 53BP1 (Panel C) MFI/cell. Panel D: Representative histogram plot from flow cytometric analysis of CD34^+ 38^− 90^+ HSC enriched cells stained for γ-H2AX with or without p38 inhibitor (p38i) and quantification of fold change in mean fluorescence intensity (MFI) of γ-H2AX in HSCs (Panel E) and percent GH2AX^+ cells (Panel F) at indicated time period. Percentage shown in histograms are cells positive for γH2AX and the numbers below is mean fluorescent intensity (MFI) (n=5 independent experiments). FACS plot representing HSCs in G0 (Quiescent), G1, and S-G2-M phase of cell cycle with or without p38i (Panel G) and quantification (Panel H) of HSC enriched population at different cell cycle phase at indicated time of ex vivo culture. Percentage of (±SEM) Ki67^− (G0) and Ki67^+ (G1-S-G2-M) HSCs is depicted on the y-axis. (n=4 independent experiments for 24 h LV and n=5 independent experiments for 42 h LV and 72 h RV)). Statistics: paired Student's t test, *p<0.05, **p<0.01, ***p<0.001.
Human MPB derived CD34^+ cells were cultured and transduced as described in FIG. 17. Panel A: Quantification of γ-H2AX^+ CD34^+ 38^− 90^+ cells at 24, 42, & 72 hours. n=5-8 independent experiments/condition). Panel B: Quantification of immunofluorescence analysis for γ-H2AX (left) and 53BP1 (right) MFI per sorted human CD34^+ 38^− 90^+ cell with or without p38i for 42 hours. Panel C: Quantitative plot representing CD34^+ 38^− 90^+ cells in G0-G1, and S-G2-M phase of cell cycle with or without p38i at 42 hours of ex vivo culture and lentivirus (LV) transduction. (n=6 independent experiments/condition). Statistics: paired Student's t test, *p<0.05, **p<0.01, ***p<0.001. Statistics: Student's t test, *p<0.05, **p<0.01, ***p<[…].
Ki67, a nuclear antigen associated with cell proliferation, was used to determine cell cycle status via flow cytometry; negative stains were considered to represent quiescent HSCs.

[4] = before the first HSC division (24 h)

Cc1ccc(-n2nc(C(C)(C)C)cc2NC(=O)Nc2ccc(OCCN3CCOCC3)c3ccccc23)cc1 [BIRB-796, 1-[5-tert-butyl-2-(4-methylphenyl)pyrazol-3-yl]-3-[4-(2-morpholin-4-ylethoxy)naphthalen-1-yl]urea]
human CD45+ cell engraftment in NSG BM, 1T ([1]; 24 weeks after 1T, 72-96 h LV and RV groups): slightly improved | hCD45+ cell engraftment in bone marrow of 1T mice [1]: not affecting | hCD45+ cell engraftment in bone marrow of 1T mice ([1]; listed as Birb796): significantly increases | apoptosis in CD34+38-90+ population [2]: no difference | effect on HSC cell cycle ([3]; after 24 h, as HSC progressed through cell cycle): lost | proportion of HSC in the G0 quiescent phase [3, 4]: significantly increased | proportion of HSC in the S-G2-M phase [3, 4]: decreased | G0 quiescent phase of untransduced and transduced HSCs [3]: maintain | G0 quiescent phase of untransduced and transduced HSCs ([3]; listed as p38i): retains
